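How tested: cells in 96-well plates exposed to compound for 48 hours at five concentrations. Abbreviation: GI50, concentration required for 50% inhibition of growth.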 Activity calls are given as the source filed them. Cut-off read from the data, not from the text of the source: active = GI50 up to about 1.1 µM and inactive = higher.
Legend:
Test in all cases: NCI tumour cell line growth inhibition, 48 h
SN12C = test system: SN12C
OVCAR-3 = test system: OVCAR-3
DU-145 = test system: DU-145
HCT-15 = test system: HCT-15
TK-10 = test system: TK-10
UACC-257 = test system: UACC-257
HCC 2998 = test system: HCC 2998
MDA-N = test system: MDA-N
A498 = test system: A498
IGROV-1 = test system: IGROV-1
RXF 393 = test system: RXF 393
NCI-H460 = test system: NCI-H460
NCI/ADR-RES = test system: NCI/ADR-RES
UO-31 = test system: UO-31
M14 = test system: M14
SF-295 = test system: SF-295
MDA-MB-435 = test system: MDA-MB-435
OVCAR-4 = test system: OVCAR-4
RPMI-8226 = test system: RPMI-8226
SF-539 = test system: SF-539

Row | Structure (SMILES) | GI50 (SN12C) | GI50 (OVCAR-3) | GI50 (DU-145) | GI50 (HCT-15) [µM] | GI50 (TK-10) | GI50 (UACC-257) | GI50 (HCC 2998) | GI50 (MDA-N) | GI50 (A498) | GI50 (IGROV-1) | GI50 (RXF 393) | GI50 (NCI-H460) | GI50 (NCI/ADR-RES) | GI50 (UO-31) | GI50 (M14) | GI50 (SF-295) | GI50 (MDA-MB-435) | GI50 (OVCAR-4) | GI50 (RPMI-8226) | GI50 (SF-539)
1 | CN(C)CCNc1ccccn1 | > 100 µM (inactive) | > 100 µM (inactive) | > 100 µM (inactive) | > 100 | > 100 µM (inactive) | > 100 µM (inactive) | > 100 µM (inactive) | > 100 µM (inactive) | > 100 µM (inactive) | > 100 µM (inactive) | > 100 µM (inactive) | > 100 µM (inactive) | > 100 µM (inactive) | > 100 µM (inactive) | > 100 µM (inactive) | > 100 µM (inactive) | > 100 µM (inactive) | > 100 µM (inactive) | – | –
2 | N=C(N)N/N=C/c1c(-c2ccc(N)cc2)nc2sccn12 | 21.3 µM (inactive) | 21.8 µM (inactive) | 17.5 µM (inactive) | 36.9 | 20.9 µM (inactive) | > 100 µM (inactive) | – | 24.5 µM (inactive) | 25.9 µM (inactive) | 60.8 µM (inactive) | 18.2 µM (inactive) | 26.4 µM (inactive) | > 100 µM (inactive) | 20 µM (inactive) | 24.2 µM (inactive) | 23.4 µM (inactive) | 26.5 µM (inactive) | 35.3 µM (inactive) | 30.8 µM (inactive) | 26.9 µM (inactive)
3 | CCOC(=O)Cn1sc2ncc([N+](=O)[O-])cc2c1=O | 16.6 µM (inactive) | 16.8 µM (inactive) | > 100 µM (inactive) | 16.4 | 17.9 µM (inactive) | 17.1 µM (inactive) | 16.4 µM (inactive) | 12.4 µM (inactive) | > 100 µM (inactive) | 13.2 µM (inactive) | 20 µM (inactive) | 17.1 µM (inactive) | 13.9 µM (inactive) | 10.1 µM (inactive) | – | 18.9 µM (inactive) | 16.2 µM (inactive) | 18.8 µM (inactive) | 8 µM (inactive) | 19.5 µM (inactive)
4 | NC1CC2NC3CCCCC3NC2CC1N (stereo not given) | 35 µM (inactive) | 40.8 µM (inactive) | 50.2 µM (inactive) | 21.7 | 41.8 µM (inactive) | 37.9 µM (inactive) | 62.5 µM (inactive) | 43.8 µM (inactive) | 26.8 µM (inactive) | 55.2 µM (inactive) | 23.7 µM (inactive) | 29 µM (inactive) | 30.1 µM (inactive) | 27 µM (inactive) | 67.9 µM (inactive) | 31.8 µM (inactive) | 36.1 µM (inactive) | – | 37.5 µM (inactive) | 80.4 µM (inactive)
5 | COc1ccc2nc3c(C)cc4ccccc4n3c2c1 | > 100 µM (inactive) | 71 µM (inactive) | > 100 µM (inactive) | 56.5 | 80.2 µM (inactive) | > 100 µM (inactive) | > 100 µM (inactive) | > 100 µM (inactive) | 11.9 µM (inactive) | 29.2 µM (inactive) | 25.8 µM (inactive) | 25.3 µM (inactive) | > 100 µM (inactive) | 52 µM (inactive) | > 100 µM (inactive) | 78.7 µM (inactive) | > 100 µM (inactive) | – | 55.1 µM (inactive) | 86.9 µM (inactive)
6 | CN1C(=O)C(C#N)C2C[C@@]1(C)Oc1ccccc12 (stereo not given in full) | – | > 100 µM (inactive) | > 100 µM (inactive) | > 100 | > 100 µM (inactive) | > 100 µM (inactive) | > 100 µM (inactive) | > 100 µM (inactive) | > 100 µM (inactive) | > 100 µM (inactive) | > 100 µM (inactive) | 91.8 µM (inactive) | > 100 µM (inactive) | > 100 µM (inactive) | > 100 µM (inactive) | > 100 µM (inactive) | > 100 µM (inactive) | > 100 µM (inactive) | > 100 µM (inactive) | –
7 | O=C(O)c1ccc(/C=N/N=C2c3ccccc3-c3ccccc32)cc1 | 31.5 µM (inactive) | 19.6 µM (inactive) | > 100 µM (inactive) | 57.1 | 66.1 µM (inactive) | 67.5 µM (inactive) | – | 50.9 µM (inactive) | > 100 µM (inactive) | 54.8 µM (inactive) | 89.9 µM (inactive) | 41.2 µM (inactive) | > 100 µM (inactive) | 42 µM (inactive) | 67.1 µM (inactive) | 12.7 µM (inactive) | 73.5 µM (inactive) | 35.8 µM (inactive) | 63.7 µM (inactive) | 31 µM (inactive)
8 | COC(=O)[C@H]1ON2O[C@H](OC3CCCC[C@@H]3c3ccccc3)C[C@@H]3CC[C@H]1[C@@]32C (stereo not given in full) | 31.6 µM (inactive) | – | > 100 µM (inactive) | 89.9 | > 100 µM (inactive) | > 100 µM (inactive) | > 100 µM (inactive) | > 100 µM (inactive) | > 100 µM (inactive) | > 100 µM (inactive) | 45.9 µM (inactive) | > 100 µM (inactive) | > 100 µM (inactive) | 97.3 µM (inactive) | > 100 µM (inactive) | > 100 µM (inactive) | > 100 µM (inactive) | > 100 µM (inactive) | 69.7 µM (inactive) | –
9 | C=CC(C)(C)n1cc(C2=C(O)C(=O)C(c3cn(C(C)(C)C=C)c4ccccc34)=C(OC(C)=O)C2=O)c2ccccc21 | 0.456 µM (active) | 1.04 µM (active) | 1.04 µM (active) | 0.375 | – | 0.64 µM (active) | 0.908 µM (active) | 0.662 µM (active) | 0.853 µM (active) | 0.435 µM (active) | 0.929 µM (active) | 0.592 µM (active) | 1.64 µM (inactive) | 1.07 µM (active) | 1.25 µM (inactive) | 0.571 µM (active) | 0.513 µM (active) | 1.32 µM (inactive) | 0.984 µM (active) | –
10 | O=C1C2=C(SCCS2)C(=O)c2c(Sc3ccc(Cl)cc3)c(Sc3ccc(Cl)cc3)c(Sc3ccc(Cl)cc3)c(Sc3ccc(Cl)cc3)c21 | > 100 µM (inactive) | > 100 µM (inactive) | > 100 µM (inactive) | > 100 | – | > 100 µM (inactive) | > 100 µM (inactive) | > 100 µM (inactive) | 29.2 µM (inactive) | 99.1 µM (inactive) | 27 µM (inactive) | > 100 µM (inactive) | > 100 µM (inactive) | > 100 µM (inactive) | 33.8 µM (inactive) | 32.5 µM (inactive) | > 100 µM (inactive) | > 100 µM (inactive) | 51.3 µM (inactive) | –
11 | COC(=O)c1ccc(NCc2cc(O)c3ccccc3c2O)cc1 | 7.13 µM (inactive) | 14.9 µM (inactive) | 15.8 µM (inactive) | 8.49 | 24.4 µM (inactive) | 7.87 µM (inactive) | 21.9 µM (inactive) | 2.15 µM (inactive) | 19.8 µM (inactive) | 11.4 µM (inactive) | 16.3 µM (inactive) | 7.31 µM (inactive) | 27.1 µM (inactive) | 13.1 µM (inactive) | – | 7.5 µM (inactive) | 2.11 µM (inactive) | 12.4 µM (inactive) | 3.45 µM (inactive) | 15.3 µM (inactive)
12 | Cc1[nH]c(-c2ccccc2)c2nc(N(C)C)oc(=O)c12 | > 100 µM (inactive) | – | > 100 µM (inactive) | > 100 | > 100 µM (inactive) | > 100 µM (inactive) | > 100 µM (inactive) | > 100 µM (inactive) | > 100 µM (inactive) | > 100 µM (inactive) | > 100 µM (inactive) | > 100 µM (inactive) | > 100 µM (inactive) | > 100 µM (inactive) | > 100 µM (inactive) | > 100 µM (inactive) | > 100 µM (inactive) | > 100 µM (inactive) | > 100 µM (inactive) | > 100 µM (inactive)
13 | Nc1ccc2c(c1)S(=O)(=O)c1cc(N)ccc1-2 | > 100 µM (inactive) | > 100 µM (inactive) | > 100 µM (inactive) | > 100 | > 100 µM (inactive) | > 100 µM (inactive) | > 100 µM (inactive) | > 100 µM (inactive) | > 100 µM (inactive) | > 100 µM (inactive) | > 100 µM (inactive) | > 100 µM (inactive) | > 100 µM (inactive) | > 100 µM (inactive) | > 100 µM (inactive) | > 100 µM (inactive) | > 100 µM (inactive) | > 100 µM (inactive) | – | > 100 µM (inactive)
14 | CO[C@@H]1C=C[C@@]23c4cc5c(cc4C(O)N(CC2O)C3C1)OCO5 (stereo not given in full) | 4.15 µM (inactive) | 4.86 µM (inactive) | 3.81 µM (inactive) | 3.8 | 4.19 µM (inactive) | 1.86 µM (inactive) | – | 3.2 µM (inactive) | 3.15 µM (inactive) | 3.78 µM (inactive) | 5.62 µM (inactive) | 2.84 µM (inactive) | 13.9 µM (inactive) | 3.68 µM (inactive) | 3.14 µM (inactive) | 5.41 µM (inactive) | 3.06 µM (inactive) | 2.8 µM (inactive) | 4.18 µM (inactive) | 9.23 µM (inactive)
15 | COc1ccc(Nc2nc(N)c(C(=O)c3ccccc3)s2)cc1 | 0.0811 µM (active) | 0.0607 µM (active) | 0.178 µM (active) | 0.0471 | 23.8 µM (inactive) | 29.5 µM (inactive) | 0.227 µM (active) | < 0.01 µM (active) | 5.66 µM (inactive) | 0.273 µM (active) | 0.19 µM (active) | 0.0289 µM (active) | < 0.01 µM (active) | 0.0912 µM (active) | – | 0.0164 µM (active) | < 0.01 µM (active) | 2.44 µM (inactive) | 0.0681 µM (active) | 0.0129 µM (active)

Source: ChEMBL document CHEMBL1201862, “PubChem BioAssay data set” (2004)
